*1 amine or outer side, *2 acyl side, *3 side chain or, on linkers, in order; H or OH if unused. Where a SMILES comes first, the peptide text is derived from it. Bridges are numbered along the chain shown (N, C = ends). [ ]: non-standard residue; d: D form. The star is where a group is joined. hPhe(3,5-F2-4-CF3) = N[C@@H](CCc1cc(F)c(C(F)(F)F)c(F)c1)C(=O)O; NPrPhe(4-CF3) = CCCN[C@@H](Cc1ccc(C(F)(F)F)cc1)C(=O)O; NMeAbu(4,4,4-F3) = CN[C@@H](CC(F)(F)F)C(=O)O; NMeGly(cPent) = CN[C@H](C(=O)O)C1CCCC1; Ac4c(3,3-F2) = NC1(C(=O)O)CC(F)(F)C1; X13 = CCC[C@](C)(N[*:1])C(=O)[*:2]; αMeCha = C[C@](N)(CC1CCCCC1)C(=O)O; Nva(3-Et) = CCC(CC)[C@H](N)C(=O)O; NMeD = CN[C@@H](CC(=O)O)C(=O)O; Ac4c(3-oxa) = NC1(C(=O)O)COC1; NMeL = CN[C@@H](CC(C)C)C(=O)O; αMeL = CC(C)C[C@](C)(N)C(=O)O; αMeS = C[C@](N)(CO)C(=O)O; Iva = CC[C@](C)(N)C(=O)O; Morpholide = C1CN(*)CCO1; Ac5c = NC1(C(=O)O)CCCC1; Aze = O=C(O)[C@@H]1CCN1; Sar = CNCC(=O)O; tBu = CC(C)(C)*; Allyl = C=CC*
Experiments:
[1] = target: GDP-bound HRAS wild-type protein (Homo sapiens, UniProt P01112); test: Binding to HRAS by surface plasmon resonance (SPR), Single Cycle Kinetics; conditions: KD ratio HRAS/KRAS, SPR
GDP-bound HRAS wild-type protein, sequence (P01112 whole entry): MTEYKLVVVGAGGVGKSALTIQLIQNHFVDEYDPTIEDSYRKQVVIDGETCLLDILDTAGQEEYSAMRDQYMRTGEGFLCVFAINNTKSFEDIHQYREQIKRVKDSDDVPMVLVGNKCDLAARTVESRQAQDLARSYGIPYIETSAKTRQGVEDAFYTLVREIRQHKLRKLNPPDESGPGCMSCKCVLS

[2] = target: GDP-bound NRAS wild-type protein (Homo sapiens, UniProt P01111); test: Binding to NRAS by surface plasmon resonance (SPR), Single Cycle Kinetics; conditions: KD ratio NRAS/KRAS, SPR
GDP-bound NRAS wild-type protein, sequence (P01111 whole entry): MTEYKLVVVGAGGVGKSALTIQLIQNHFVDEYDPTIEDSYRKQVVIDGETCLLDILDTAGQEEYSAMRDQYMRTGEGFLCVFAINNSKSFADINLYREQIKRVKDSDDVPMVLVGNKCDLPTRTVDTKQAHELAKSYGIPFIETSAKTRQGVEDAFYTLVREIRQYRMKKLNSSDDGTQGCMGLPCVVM

| Structure (SMILES) | HRAS/KRAS (ratio of KD value with respect to GDP-bound HRAS wild-type protein to KD value with respect to KRAS) [1] | NRAS/KRAS (ratio of KD value with respect to GDP-bound NRAS wild-type protein to KD value with respect to KRAS) [2] |
| --- | --- | --- |
| CCCN1C(=O)[C@@H]2CCN2C(=O)CN(C)C(=O)[C@H]([C@@H](C)CC)NC(=O)[C@H](CC(C)C)N(C)C(=O)C[C@@H](C(=O)N2CCOCC2)N(C)C(=O)[C@H](C2CCCC2)N(C)C(=O)[C@](C)(CCC)NC(=O)[C@@H]2CCCN2C(=O)[C@H](CCc2cc(F)c(C(F)(F)F)c(F)c2)NC(=O)CN(C)C(=O)[C@@H]1Cc1ccc(C(F)(F)F)cc1 [PP0794] ([NMeL]I[Sar][Aze][NPrPhe(4-CF3)][Sar][hPhe(3,5-F2-4-CF3)]P[X13][NMeGly(cPent)][NMeD]-Morpholide; lactam N-11) | B (a compound having 3 or more and less than 10 is denoted as B) | C (A compound having a KD ratio of 0.1 or more and less than 3 is denoted as C) |
| CCCN1C(=O)[C@@H]2CCN2C(=O)CN(C)C(=O)[C@H]([C@@H](C)CC)NC(=O)[C@H](CC(C)C)N(C)C(=O)C[C@@H](C(=O)N2CCOCC2)N(C)C(=O)[C@H](C2CCCC2)N(C)C(=O)[C@](C)(CC(C)C)NC(=O)[C@@H]2CCCN2C(=O)[C@H](CCc2cc(F)c(C(F)(F)F)c(F)c2)NC(=O)CN(C)C(=O)[C@@H]1Cc1ccc(C(F)(F)F)cc1 [PP0795] ([NMeL]I[Sar][Aze][NPrPhe(4-CF3)][Sar][hPhe(3,5-F2-4-CF3)]P[αMeL][NMeGly(cPent)][NMeD]-Morpholide; lactam N-11) | B (a compound having 3 or more and less than 10 is denoted as B) | C (A compound having a KD ratio of 0.1 or more and less than 3 is denoted as C) |
| CCCN1C(=O)[C@@H]2CCN2C(=O)CN(C)C(=O)[C@H]([C@@H](C)CC)NC(=O)[C@H](CC(C)C)N(C)C(=O)C[C@@H](C(=O)N2CCOCC2)N(C)C(=O)[C@H](C2CCCC2)N(C)C(=O)[C@](C)(CC2CCCCC2)NC(=O)[C@@H]2CCCN2C(=O)[C@H](CCc2cc(F)c(C(F)(F)F)c(F)c2)NC(=O)CN(C)C(=O)[C@@H]1Cc1ccc(C(F)(F)F)cc1 [PP0796] ([NMeL]I[Sar][Aze][NPrPhe(4-CF3)][Sar][hPhe(3,5-F2-4-CF3)]P[αMeCha][NMeGly(cPent)][NMeD]-Morpholide; lactam N-11) | B (a compound having 3 or more and less than 10 is denoted as B) | C (A compound having a KD ratio of 0.1 or more and less than 3 is denoted as C) |
| CCCN1C(=O)[C@@H]2CCN2C(=O)CN(C)C(=O)[C@H]([C@@H](C)CC)NC(=O)[C@H](CC(C)C)N(C)C(=O)C[C@@H](C(=O)N2CCOCC2)N(C)C(=O)[C@H](C2CCCC2)N(C)C(=O)[C@](C)(COC)NC(=O)[C@@H]2CCCN2C(=O)[C@H](CCc2cc(F)c(C(F)(F)F)c(F)c2)NC(=O)CN(C)C(=O)[C@@H]1Cc1ccc(C(F)(F)F)cc1 [PP0798] ([NMeL]I[Sar][Aze][NPrPhe(4-CF3)][Sar][hPhe(3,5-F2-4-CF3)]P[αMeS](Me)[NMeGly(cPent)][NMeD]-Morpholide; lactam N-11) | B (a compound having 3 or more and less than 10 is denoted as B) | C (A compound having a KD ratio of 0.1 or more and less than 3 is denoted as C) |
| C=CCOC[C@]1(C)NC(=O)[C@@H]2CCCN2C(=O)[C@H](CCc2cc(F)c(C(F)(F)F)c(F)c2)NC(=O)CN(C)C(=O)[C@H](Cc2ccc(C(F)(F)F)cc2)N(CCC)C(=O)[C@@H]2CCN2C(=O)CN(C)C(=O)[C@H]([C@@H](C)CC)NC(=O)[C@H](CC(C)C)N(C)C(=O)C[C@@H](C(=O)N2CCOCC2)N(C)C(=O)[C@H](C2CCCC2)N(C)C1=O [PP0799] ([NMeL]I[Sar][Aze][NPrPhe(4-CF3)][Sar][hPhe(3,5-F2-4-CF3)]P[αMeS](Allyl)[NMeGly(cPent)][NMeD]-Morpholide; lactam N-11) | B (a compound having 3 or more and less than 10 is denoted as B) | C (A compound having a KD ratio of 0.1 or more and less than 3 is denoted as C) |
| CCCN1C(=O)[C@@H]2CCN2C(=O)CN(C)C(=O)[C@H]([C@@H](C)CC)NC(=O)[C@H](CC(C)C)N(C)C(=O)C[C@@H](C(=O)N2CCOCC2)N(C)C(=O)[C@H](C2CCCC2)N(C)C(=O)[C@](C)(COC(C)(C)C)NC(=O)[C@@H]2CCCN2C(=O)[C@H](CCc2cc(F)c(C(F)(F)F)c(F)c2)NC(=O)CN(C)C(=O)[C@@H]1Cc1ccc(C(F)(F)F)cc1 [PP0800] ([NMeL]I[Sar][Aze][NPrPhe(4-CF3)][Sar][hPhe(3,5-F2-4-CF3)]P[αMeS](tBu)[NMeGly(cPent)][NMeD]-Morpholide; lactam N-11) | B (a compound having 3 or more and less than 10 is denoted as B) | C (A compound having a KD ratio of 0.1 or more and less than 3 is denoted as C) |
| CCCN1C(=O)[C@@H]2CCN2C(=O)CN(C)C(=O)[C@H]([C@@H](C)CC)NC(=O)[C@H](CC(C)C)N(C)C(=O)C[C@@H](C(=O)N2CCOCC2)N(C)C(=O)[C@H](C2CCCC2)N(C)C(=O)C2(COC2)NC(=O)[C@@H]2CCCN2C(=O)[C@H](CCc2cc(F)c(C(F)(F)F)c(F)c2)NC(=O)CN(C)C(=O)[C@@H]1Cc1ccc(C(F)(F)F)cc1 [PP0801] ([NMeL]I[Sar][Aze][NPrPhe(4-CF3)][Sar][hPhe(3,5-F2-4-CF3)]P[Ac4c(3-oxa)][NMeGly(cPent)][NMeD]-Morpholide; lactam N-11) | B (a compound having 3 or more and less than 10 is denoted as B) | C (A compound having a KD ratio of 0.1 or more and less than 3 is denoted as C) |
| CCCN1C(=O)[C@@H]2CCN2C(=O)CN(C)C(=O)[C@H]([C@@H](C)CC)NC(=O)[C@H](CC(C)C)N(C)C(=O)C[C@@H](C(=O)N2CCOCC2)N(C)C(=O)[C@H](C2CCCC2)N(C)C(=O)C2(CC(F)(F)C2)NC(=O)[C@@H]2CCCN2C(=O)[C@H](CCc2cc(F)c(C(F)(F)F)c(F)c2)NC(=O)CN(C)C(=O)[C@@H]1Cc1ccc(C(F)(F)F)cc1 [PP0802] ([NMeL]I[Sar][Aze][NPrPhe(4-CF3)][Sar][hPhe(3,5-F2-4-CF3)]P[Ac4c(3,3-F2)][NMeGly(cPent)][NMeD]-Morpholide; lactam N-11) | B (a compound having 3 or more and less than 10 is denoted as B) | C (A compound having a KD ratio of 0.1 or more and less than 3 is denoted as C) |
| CCCN1C(=O)[C@@H]2CCN2C(=O)CN(C)C(=O)[C@H]([C@@H](C)CC)NC(=O)[C@H](CC(C)C)N(C)C(=O)C[C@@H](C(=O)N2CCOCC2)N(C)C(=O)[C@H](CC(F)(F)F)N(C)C(=O)C2(CCCC2)NC(=O)[C@@H]2CCCN2C(=O)[C@H](CCc2cc(F)c(C(F)(F)F)c(F)c2)NC(=O)CN(C)C(=O)[C@@H]1Cc1ccc(C(F)(F)F)cc1 [PP0803] ([NMeL]I[Sar][Aze][NPrPhe(4-CF3)][Sar][hPhe(3,5-F2-4-CF3)]P[Ac5c][NMeAbu(4,4,4-F3)][NMeD]-Morpholide; lactam N-11) | B (a compound having 3 or more and less than 10 is denoted as B) | C (A compound having a KD ratio of 0.1 or more and less than 3 is denoted as C) |
| CCCN1C(=O)[C@@H]2CCN2C(=O)CN(C)C(=O)[C@H](C(CC)CC)NC(=O)[C@H](CC(C)C)N(C)C(=O)C[C@@H](C(=O)N2CCOCC2)N(C)C(=O)[C@H](C2CCCC2)N(C)C(=O)C2(CCCC2)NC(=O)[C@@H]2CCCN2C(=O)[C@H](CCc2cc(F)c(C(F)(F)F)c(F)c2)NC(=O)CN(C)C(=O)[C@@H]1Cc1ccc(C(F)(F)F)cc1 [PP0804] ([NMeL][Nva(3-Et)][Sar][Aze][NPrPhe(4-CF3)][Sar][hPhe(3,5-F2-4-CF3)]P[Ac5c][NMeGly(cPent)][NMeD]-Morpholide; lactam N-11) | B (a compound having 3 or more and less than 10 is denoted as B) | C (A compound having a KD ratio of 0.1 or more and less than 3 is denoted as C) |
| CCCN1C(=O)CN(C)C(=O)CN(C)C(=O)[C@H]([C@@H](C)CC)NC(=O)[C@H](CC(C)C)N(C)C(=O)C[C@@H](C(=O)N(C)C)N(C)C(=O)[C@H](C2CCCC2)N(C)C(=O)[C@](C)(CC)NC(=O)[C@@H]2CCCN2C(=O)[C@H](CCc2cc(F)c(C(F)(F)F)c(F)c2)NC(=O)CN(C)C(=O)[C@@H]1Cc1ccc(C(F)(F)F)cc1 [PP0805] ([NMeL]I[Sar][Sar][NPrPhe(4-CF3)][Sar][hPhe(3,5-F2-4-CF3)]P[Iva][NMeGly(cPent)][NMeD]-NMe2; lactam N-11) | C (A compound having a KD ratio of 0.1 or more and less than 3 is denoted as C) | B (a compound having 3 or more and less than 10 is denoted as B) |
| CCO[C@@H]1C[C@H]2C(=O)NC3(CCC3)C(=O)N(C)[C@@H](C3CCCC3)C(=O)N(C)[C@H](C(=O)N3CCOCC3)CC(=O)N(C)[C@@H](CC(C)C)C(=O)N[C@@H]([C@H](C)CC)C(=O)N(C)CC(=O)N(C)[C@H]3CCCCN(C3=O)[C@@H](Cc3ccc(C(F)(F)F)cc3)C(=O)N(C)CC(=O)N[C@@H](CCc3cc(F)c(C(F)(F)F)c(F)c3)C(=O)N2C1 [PP0806] | B (a compound having 3 or more and less than 10 is denoted as B) | B (a compound having 3 or more and less than 10 is denoted as B) |
